Measured values taken from patent publication US9463190B2, “Methods of treating disease-induced ataxia and non-ataxic imbalance” (UNIVERSITY OF SOUTH FLORIDA, priority 2008, dated 2016).

Tests used:
[1] = system: cerebellar symptoms of SCA14; test: Case report: person with SCA14 taking varenicline (Example 2, second patient); format: in vivo, human; conditions: for effect of prior medications on cerebellar symptoms: SCA14 patient, before varenicline; for total SARA score: blinded rating
Procedure: The second patient was a person who presented to an academic movement disorders center for neurologic evaluation. […] They had never smoked or used drugs or alcohol and had no allergies. Their medical history was significant for hypertension, which was treated with 325 mg of valsartan (Diovan). Prior medications to treat their cerebellar symptoms included levodopa/carbidopa (Sinemet), lorazepam (Ativan), clonazapem (Klonopin), and zolpidem (Ambien), to no avail.
On evaluation, the patient's vital signs and physical examination were normal. Their neurologic examination included a Mini-Mental Status Examination of 30/30, mild dysarthria, mild postural and intention tremor, and moderate dysmetria in all extremities. Their gait consisted of moderate to severe ataxia, and they required the constant use of a walker or the support of a cane to ambulate. The patient could tandem walk only with support. Increased tone and hyperreflexia were present in their lower extremities, with occasional myoclonus of their right leg.
The patient was started on 0.5 mg of varenicline (Chantix®) once a day, titrating to 1 mg twice daily after 1 week with the understanding that this was being used as an off-label medication. […] The patient returned to the academic movement disorders center 3 weeks after starting varenicline. […] The patient was scored by a blinded movement disorders expert using the SARA. The patient's total SARA score before taking 1 mg of varenicline twice daily was 22, whereas the score 3 weeks after starting varenicline was 8. The patient remained on varenicline for 8 weeks with continued efficacy but discontinued it owing to financial considerations.

[2] = system: ataxia and imbalance; conditions: case series and small controlled trials; cited from earlier work
[3] = in vivo; cited from earlier work
[4] = system: cerebellar symptoms of SCA type 3; test: Case report: person with SCA type 3 taking varenicline (Example 2, first patient); format: in vivo, human; conditions: for total SARA score: blinded video rating
Excerpt: The first patient was a person with a 16-year history of imbalance, gait dysfunction, and dysarthria who presented to an academic movement disorders center for management of their symptoms. […] Their medical history included one myocardial infarction 2 years ago, coronary artery disease, hypertension, and hyperlipidemia. […] On examination, the patient's vital signs and physical examination were normal. Their neurologic examination included a Mini-Mental Status Exam (MMSE) of 30/30, mild dysarthria, mild to moderate postural and intention tremor, mild dystonia in their arms, mild akinesia, and moderate dysmetria in all extremities. Fast alternating hand movements were irregular and marked by interruptions, and their heel to shin slide was severely abnormal bilaterally. Their gait was ataxic and […], and they required the constant use of a walker or the support of a cane to ambulate. Their cranial nerves and motor examination were normal, although there was mild decrease in […] sensory examination to light and deep touch in a stocking-glove distribution. There was increased tone and hyperreflexia in their lower extremities. […] After the evaluation, the patient started varenicline 0.5 mg twice daily for smoking cessation. The dose of varenicline was increased to 1 mg twice daily after one week. […] The patient returned to the academic movement disorders center one month after starting varenicline for routine follow-up. […] A videotape of the patient was scored by a blinded movement disorders expert using the SARA (Scale for Assessment and Rating of Ataxia) (1). The total SARA score prior to the patient taking varenicline 1 mg twice daily was 29, while the score one month after starting varenicline was 13.

[5] = system: cerebellar symptoms of spinocerebellar ataxia (SCA) and Fragile-X-Associated Tremor Ataxia Syndrome (FXTAS); test: Open-label varenicline in ataxic patients; SARA and CGI, blinded video assessment; format: in vivo, human
Procedure: DESIGN/METHODS: Seven patients from an academic movement disorders center with spinocerebellar ataxia (n=6) and […]=1), were treated with open-label varenicline 1 mg twice daily. Two patients had genetically confirmed SCA 3, 1 patient had genetically confirmed SCA 6, 3 patients had sporadic cerebellar ataxia with no family history, and 1 patient had genetically-confirmed FXTAS. Patients were treated for 4 weeks with varenicline, which was discontinued on day 30. They were assessed at baseline and after 4 weeks using the Scale for the Assessment and Rating of Ataxia (SARA) (Schmitz-Hubsch et al, 2006) and the Clinical Global Impression (CGI) scale. Ataxia experts blindly assessed videotapes of the patients. […] In the remaining 5 patients, there was a mean improvement of 2.4 points in gait scores and of 5 points for the total SARA scores with varenicline use.

[6] = system: ataxia and imbalance in Fragile X-associated Tremor Ataxia syndrome (FXTAS); test: Case report: person with FXTAS taking varenicline (Example 1); format: in vivo, human; conditions: for SARA score, functional staging for ataxia / SARA score, gait / SARA score, tandem walking: blinded video rating
Procedure: The patient was a person with a nine-year history of postural and intention tremor of their arms and a four-year history of gait ataxia. Their symptoms became disabling in the past year with frequent falls despite the intermittent use of a walker. […] A timeline of the patient's clinical course is depicted in FIG. 1. […] One week after taking varenicline, they noted that their walking improved and they no longer needed assistance from a walker to ambulate. […] The patient was evaluated by the University of South Florida (USF) movement disorders center seven weeks after starting varenicline. Vital signs and physical examination were normal. Their neurological examination included a Mini Mental State Exam (MMSE) of 26/30, mild dysarthria, mild voice tremor, severe postural and intention tremor of their arms, mild rigidity, and moderate dysmetria in all extremities. They were able to get out of a chair without assistance, and continued to walk six meters five times (30 meters total) without rest or the assistance of a walker. They were able to tandem walk for two to three steps. The rest of their neurological exam, including cranial nerves, reflexes, motor and sensory examination, was within normal limits. The patient received a score of 5 (out of a maximum possible score=63) on a Beck's Depression Scale (BDI) (2). […] Chest X-ray was clear, with no evidence of neoplasia. The patient stopped varenicline seven weeks after starting it. Within 10 days, they reported a slight worsening of the residual ataxia and imbalance. Within three weeks, they again needed a walker for ambulation and began to fall daily. The patient returned to clinic off varenicline. […] They once again needed assistance to walk and was unable to tandem walk even with assistance. The rest of the neurological examination remained unchanged, including the postural and intention tremor. […] At week 11, the patient re-started varenicline one mg twice daily, and again noted improvement in ataxia within one week. Due to vivid dreams, the varenicline dose was decreased to one mg daily at week 12. The patient has taken varenicline for 22 weeks, with a sustained ataxia improvement. A videotape of the patient was scored by a blinded movement disorders expert using the SARA (Scale for Assessment and Rating of Ataxia) (3). The SARA scores on varenicline one mg b.i.d. were “two” for functional staging for ataxia (ataxic symptoms were present and were recognized by patient, but were still mild), “one” for tandem walking (the patient was able to tandem walk in less than perfect manner or the patient could tandem walk greater than four sequential steps but less than eight steps) and “zero” for gait (normal). The SARA scores after the patient had discontinued varenicline for three weeks included a “three” for functional staging for ataxia (ataxic symptoms considered overt and significant), “three” for tandem walking (the patient was considered too poorly coordinated to attempt the task), and “two” for gait (the patient walked with definite ataxia; may have needed intermittent support for walking or the examiner needed to walk with patient for safety sake).

[7] = target: α7 nicotinic acetylcholine receptors (Homo sapiens, UniProt P36544); conditions: cited from earlier work
Chain of α7 nicotinic acetylcholine receptors (P36544 23-502): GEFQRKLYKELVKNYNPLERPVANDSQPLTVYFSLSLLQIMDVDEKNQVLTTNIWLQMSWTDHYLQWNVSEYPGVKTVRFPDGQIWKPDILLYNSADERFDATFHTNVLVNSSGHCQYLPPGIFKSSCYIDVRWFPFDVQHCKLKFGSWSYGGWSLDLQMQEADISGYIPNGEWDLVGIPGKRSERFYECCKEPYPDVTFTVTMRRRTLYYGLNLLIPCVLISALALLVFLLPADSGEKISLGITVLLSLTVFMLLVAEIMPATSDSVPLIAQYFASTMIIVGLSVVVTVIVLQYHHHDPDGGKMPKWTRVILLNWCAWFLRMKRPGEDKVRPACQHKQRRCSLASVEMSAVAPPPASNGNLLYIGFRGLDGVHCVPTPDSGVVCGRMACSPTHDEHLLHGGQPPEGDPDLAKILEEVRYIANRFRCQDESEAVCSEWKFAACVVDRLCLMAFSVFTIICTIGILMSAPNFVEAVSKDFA

[8] = target: α4β2 nicotinic acetylcholine receptors (Homo sapiens, UniProt P17787+P43681); conditions: cited from earlier work
Chain of α4β2 nicotinic acetylcholine receptors (P43681 29-627 limits assumed): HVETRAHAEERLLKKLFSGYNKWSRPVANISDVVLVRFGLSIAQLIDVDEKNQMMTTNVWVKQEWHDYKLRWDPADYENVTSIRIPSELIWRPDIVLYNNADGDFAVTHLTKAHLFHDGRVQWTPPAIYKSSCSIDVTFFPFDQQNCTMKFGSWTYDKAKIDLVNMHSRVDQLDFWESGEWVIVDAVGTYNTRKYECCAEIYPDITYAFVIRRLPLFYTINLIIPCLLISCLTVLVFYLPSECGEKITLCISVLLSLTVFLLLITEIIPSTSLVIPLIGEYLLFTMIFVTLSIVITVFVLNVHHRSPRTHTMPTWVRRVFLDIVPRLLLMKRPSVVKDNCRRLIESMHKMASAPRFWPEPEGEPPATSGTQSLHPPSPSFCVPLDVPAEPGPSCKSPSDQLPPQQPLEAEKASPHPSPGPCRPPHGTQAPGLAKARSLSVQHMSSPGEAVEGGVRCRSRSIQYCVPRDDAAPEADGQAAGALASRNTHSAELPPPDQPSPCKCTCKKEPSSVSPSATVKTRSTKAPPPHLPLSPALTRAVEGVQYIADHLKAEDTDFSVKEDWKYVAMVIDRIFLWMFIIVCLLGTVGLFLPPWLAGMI
Chain of α4β2 nicotinic acetylcholine receptors (P17787 26-502): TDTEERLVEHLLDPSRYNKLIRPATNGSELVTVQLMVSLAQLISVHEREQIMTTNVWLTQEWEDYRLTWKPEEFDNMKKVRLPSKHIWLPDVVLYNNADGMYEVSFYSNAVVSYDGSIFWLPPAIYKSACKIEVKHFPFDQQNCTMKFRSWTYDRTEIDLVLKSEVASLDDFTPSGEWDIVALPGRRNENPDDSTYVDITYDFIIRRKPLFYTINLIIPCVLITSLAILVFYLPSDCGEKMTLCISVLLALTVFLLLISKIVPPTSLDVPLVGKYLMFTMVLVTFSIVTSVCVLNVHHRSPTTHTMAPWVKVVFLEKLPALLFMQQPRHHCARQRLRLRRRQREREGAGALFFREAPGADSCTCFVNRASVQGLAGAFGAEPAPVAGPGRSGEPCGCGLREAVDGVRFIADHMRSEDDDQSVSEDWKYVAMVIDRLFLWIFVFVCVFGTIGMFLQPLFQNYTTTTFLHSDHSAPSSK

[9] = one month after starting varenicline
[10] = twenty-one days after first taking varenicline
[11] = 3 weeks after starting varenicline
[12] = of 5 remaining patients, 1 mg twice daily, 4 weeks
[13] = varenicline discontinued for three weeks
[14] = varenicline stopped after seven weeks

In the case of `Cc1ccc(-c2nc3ccc(C)cn3c2CC(=O)N(C)C)cc1` [zolpidem], the “effect of prior medications on cerebellar symptoms” value (“effect of prior medications” below) [1] is given as “to no avail” and the “efficacy in ataxia and imbalance” value [2] is given as “either conflicting results or limited efficacy”.
In the case of `O=C1CN=C(c2ccccc2Cl)c2cc([N+](=O)[O-])ccc2N1` [clonazapem], the “effect of prior medications” value [1] was “to no avail”.
In the case of `CNCCC(Oc1ccc(C(F)(F)F)cc1)c1ccccc1` (stereo not drawn) [fluoxetine], the “efficacy in ataxia and imbalance” value [2] is given as “either conflicting results or limited efficacy”.
For `O=C1Nc2ccc(Cl)cc2C(c2ccccc2Cl)=NC1O` (stereo not drawn) [lorazepam], the “effect of prior medications” value [1] was “to no avail”.
For `O=C1CC2(CCCC2)CC(=O)N1CCCCN1CCN(c2ncccn2)CC1` [buspirone], the “efficacy in ataxia and imbalance” value [2] is listed as “either conflicting results or limited efficacy”.
In the case of `Nc1nnc(-c2cccc(Cl)c2Cl)c(N)n1` [lamotrigine], the “efficacy in ataxia and imbalance” value [2] is listed as “either conflicting results or limited efficacy”.
For `c1cnc2cc3c(cc2n1)[C@@H]1CNC[C@H]3C1` [varenicline, 7,8,9,10-tetrahydro-6,10-methano-6H-pyrazino (2,3-h)(3) benzazepine], the adverse effects [3] is given as “nausea, sleep disturbance, constipation, flatulence, and vomiting”, the “potential risks associated with use” value [3] is given as “suicidal behavior, depressed mood, and agitation” and the “time to reported improvement in depth perception and easier, more stable walking” value ([4]; 0.5 mg twice daily, 1 mg twice daily after one week) is given as “Ten”. The “gait dysfunction and akinesia” value [4, 9] was “improved markedly”, the “limb dysmetria, fast alternating movements, finger to nose and heel-shin slide” value [4, 9] was “markedly improved” and the “total SARA score” value [4, 9] was 13. The “total SARA score” value ([4]; prior to taking varenicline 1 mg twice daily) was 29, the balance [4, 10] was “markedly improved” and the “distance walked using only a cane rather than a walker” value [4, 10] was 3 blocks. For the same compound, the smoking cessation ([4]; while taking varenicline) was “did not stop smoking cigarettes”, the “duration of nausea after taking the medication” value ([1]; 0.5 mg once a day, titrating to 1 mg twice daily after 1 week) was 7 days and the “speech, dysmetria, finger-to-nose and heel-to-shin maneuvers” value [1, 11] was “markedly improved”. The “total SARA score” value [1, 11] was 8, the gait dysfunction ([1]; 3 weeks after starting varenicline, could walk without assistance) was “improved markedly” and the “neurologic examination after discontinuation” value ([1]; 4 weeks after discontinuing varenicline) was “returned to prevarenicline status”. The “time to reported marked improvements in walking, coordination, speech and balance” value ([1]; after starting varenicline) was 8 days, the “total SARA score” value ([1]; before taking 1 mg of varenicline twice daily) was 22 and the “duration on varenicline with continued efficacy” value ([1]; discontinued owing to financial considerations) was 8 weeks. The “mean improvement in total SARA scores” value ([5]; 5 remaining patients, varenicline 1 mg twice daily, 4 weeks vs baseline) was 5 points, the “mean improvement in gait scores” value ([5]; 5 remaining patients, varenicline 1 mg twice daily, 4 weeks vs baseline, SARA) was 2.4 points and the “effect on cerebellar symptoms (conclusion)” value ([5]; blinded video analysis of ataxic patients) was “effectively treat cerebellar symptoms”. The “patients with marked improvement in gait as measured by the CGI” value [5, 12] was “Three”, the “patients with moderate improvement in gait as measured by the CGI” value [5, 12] was 2 patients and the “reason for discontinuation of varenicline” value ([5]; two of seven patients (one SCA 6, one sporadic ataxia)) was “flu-like symptoms and increased tremor”. The “reduction of intake of cigarettes” value ([5]; two smokers with marked improvement in gait, while taking varenicline) was 50%, the “ataxia and imbalance after starting varenicline” value ([6]; FXTAS patient) was “greatly improved” and the “duration of sustained response after open-label resumption” value ([6]; FXTAS patient) was “five”. The “BDI score off varenicline” value ([6]; after discontinuation) was “had not changed”, the “neurological examination off varenicline” value ([6]; after discontinuation) was “returned to the pre-varenicline state” and the “duration of varenicline use with sustained ataxia improvement” value ([6]; dose decreased to one mg daily at week 12) was 22 weeks. The “SARA score, functional staging for ataxia” value ([6]; on varenicline one mg b.i.d.) was “two”, the “SARA score, gait” value ([6]; on varenicline one mg b.i.d.) was “zero” and the “SARA score, tandem walking” value ([6]; on varenicline one mg b.i.d.) was “one”. For the same compound, the “onset of vivid dreaming after starting” value ([6]; one mg twice daily) was “two”, the side effect ([6]; one mg twice daily) was “vivid dreaming” and the smoking cessation ([6]; one mg twice daily) was “helped them quit smoking in a few days”. The “time until walking improved and walker no longer needed” value ([6]; one mg twice daily) was “One”, the balance ([6]; one mg twice daily, one week) was “marked improvement” and the “Beck's Depression Scale (BDI) score” value ([6]; seven weeks after starting varenicline, maximum possible score 63) was 5. For the same compound, the “distance walked without rest or assistance of a walker” value ([6]; seven weeks after starting varenicline, six meters five times) was 30 meters, the “SARA score, functional staging for ataxia” value [6, 13] was “three” and the “SARA score, gait” value [6, 13] was “two”. The “SARA score, tandem walking” value [6, 13] was “three”, the “time to slight worsening of residual ataxia and imbalance after stopping” value [6, 14] was at most 10 days and the “time until walker again needed and daily falls after stopping” value [6, 14] was “three”. For the same compound, the “type of activity at α7 nicotinic acetylcholine receptors” value [7] was “full agonist” and the “type of activity at α4β2 nicotinic acetylcholine receptors” value [8] was “highly selective partial agonist”.
